Assay results: patent US20260308145A1, “CDK2 INHIBITORS AND METHODS OF USING SAME” (Shenzhen lonova Life Science Co., Ltd., priority 2023, published 2026)

Columns and labels:
Format in all cases: biochemical
[1] = target: T1, CDK1/cyclinB1 (Homo sapiens, UniProt P06493); experiment: Cyclin-dependent kinase activity assay (continuous ATP coupling assay), CDK1/cyclinB1; conditions: CDK1/cyclinB1 10 nM, ATP 200 μM, Histone1 copeptide 100 μM, 15 min preincubation, pH 7.5, 1% DMSO
T1 construct: purchased Carna Biosciences 04-102
Experimental: (§1) Cyclin-dependent kinase activity assay was measured by continuous ATP coupling assay in which ADP generated by kinase catalyzed phosphorylation was converted back to ATP by consuming phosphoenolpyruvate (PEP) and NADH catalyzed by pyruvate kinase/lactate dehydrogenase (PK/LDH). The assay compositions (see, Table 1) consist of one of the kinases, including CDK1/cyclinB1, CDK2/cyclinE1, CDK4/cyclinD3, and CDK6/cyclinD3 at the designated concentration, ATP at the corresponding Km of the kinase, copeptide and the ATP coupling system of PEP, NADH and PK/LDH. The assay was conducted in a reaction buffer of 20 mM Tris (pH 7.5) with 50 mM NaCl, 0.5 mM DTT and 0.04% BSA, and results were monitored continuously by fluorescence decrease of NADH with excitation at 340 nm and emission at 460 nm. Linear regression of the resulting reaction time traces gave reaction velocities.
(§2) For inhibition assay, compounds were first serial diluted in a 1:3 ratio from 10 μM to 0.05 nM using 10× reaction buffer. One of the CDK kinase was then introduced to compounds solution and incubated for 15 min. Finally, the compositions of ATP coupling system were introduced to the resulting solution to initiate the reaction. The final reaction mixture was in 1× reaction assay buffer with 1% DMSO. The half-maximal inhibition concentrations (IC50) for compounds were determined by fitting the plots of reaction velocity against compound concentration with 4-variable IC50 equation. The inhibition constants (Ki) were determined by fitting the same plots with quadratic/Morrison equation. Data were analyzed using commercially available software Graphpad Prism.
(§3) Exemplary results are presented as calculated IC50 values. • A: IC50≤10 nM • B: IC50>10 nM and IC50<100 nM • C: IC50≥100 nM

[2] = target: T2, CDK4/cyclinD3 (Homo sapiens, UniProt P11802); experiment: Cyclin-dependent kinase activity assay (continuous ATP coupling assay), CDK4/cyclinD3; conditions: CDK4/cyclinD3 60 nM, ATP 500 μM, Rb copeptide 500 μM, 15 min preincubation, pH 7.5, 1% DMSO
T2 construct: purchased Carna Biosciences 04-105
Experimental: as §1, §2, §3

[3] = target: T3, CDK6/cyclinD3 (Homo sapiens, UniProt Q00534); experiment: Cyclin-dependent kinase activity assay (continuous ATP coupling assay), CDK6/cyclinD3; conditions: CDK6/cyclinD3 25 nM, ATP 500 μM, Rb copeptide 500 μM, 15 min preincubation, pH 7.5, 1% DMSO
T3 construct: purchased Carna Biosciences 04-107
Experimental: as §1, §2, §3

[4] = target: T4, CDK2/cyclinE1 (Homo sapiens, UniProt P24941); experiment: Cyclin-dependent kinase activity assay (continuous ATP coupling assay), CDK2/cyclinE1; conditions: CDK2/cyclinE1 5 nM, ATP 300 μM, Rb copeptide 100 μM, 15 min preincubation, pH 7.5, 1% DMSO
T4 construct: purchased Carna Biosciences 04-165
Experimental: as §1, §2, §3

T1 sequence (P06493 whole entry): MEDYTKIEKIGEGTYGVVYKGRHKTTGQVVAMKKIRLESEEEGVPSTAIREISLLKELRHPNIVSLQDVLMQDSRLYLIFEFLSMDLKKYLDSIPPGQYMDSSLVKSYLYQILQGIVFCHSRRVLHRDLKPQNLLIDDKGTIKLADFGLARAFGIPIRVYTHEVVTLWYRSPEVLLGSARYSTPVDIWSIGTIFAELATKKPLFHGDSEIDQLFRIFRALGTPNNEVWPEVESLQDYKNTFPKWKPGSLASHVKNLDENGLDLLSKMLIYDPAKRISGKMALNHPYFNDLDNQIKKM
T1 sequence (P14635 whole entry partner): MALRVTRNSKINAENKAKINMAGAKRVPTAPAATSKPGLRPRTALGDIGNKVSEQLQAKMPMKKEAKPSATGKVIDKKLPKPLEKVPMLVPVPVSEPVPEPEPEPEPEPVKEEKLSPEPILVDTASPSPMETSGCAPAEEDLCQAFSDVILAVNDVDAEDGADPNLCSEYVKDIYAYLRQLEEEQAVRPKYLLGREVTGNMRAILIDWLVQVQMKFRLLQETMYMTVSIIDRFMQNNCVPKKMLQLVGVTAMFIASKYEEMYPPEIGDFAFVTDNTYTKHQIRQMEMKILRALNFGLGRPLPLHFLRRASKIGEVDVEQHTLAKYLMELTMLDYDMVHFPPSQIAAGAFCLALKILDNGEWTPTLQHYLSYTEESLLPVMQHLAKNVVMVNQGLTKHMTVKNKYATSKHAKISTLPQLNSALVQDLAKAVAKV
T3 sequence (Q00534 whole entry): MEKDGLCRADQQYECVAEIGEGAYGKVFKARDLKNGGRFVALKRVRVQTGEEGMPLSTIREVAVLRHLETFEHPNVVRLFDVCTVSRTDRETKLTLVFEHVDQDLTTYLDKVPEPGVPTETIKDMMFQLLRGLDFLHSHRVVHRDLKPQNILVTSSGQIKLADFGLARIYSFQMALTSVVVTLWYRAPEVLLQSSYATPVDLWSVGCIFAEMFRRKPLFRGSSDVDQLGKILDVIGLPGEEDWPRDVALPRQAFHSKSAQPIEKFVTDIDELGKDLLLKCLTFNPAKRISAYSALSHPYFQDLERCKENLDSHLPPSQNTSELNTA
T3 sequence (P30281 whole entry partner): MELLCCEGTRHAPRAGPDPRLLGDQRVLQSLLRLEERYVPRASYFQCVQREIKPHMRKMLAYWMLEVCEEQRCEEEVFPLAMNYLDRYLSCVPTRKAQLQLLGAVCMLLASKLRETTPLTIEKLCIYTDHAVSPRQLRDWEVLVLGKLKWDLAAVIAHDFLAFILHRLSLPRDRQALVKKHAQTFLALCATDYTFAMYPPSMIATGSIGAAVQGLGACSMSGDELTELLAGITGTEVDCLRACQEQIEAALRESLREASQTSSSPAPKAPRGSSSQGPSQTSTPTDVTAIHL
T2 sequence (P11802 whole entry): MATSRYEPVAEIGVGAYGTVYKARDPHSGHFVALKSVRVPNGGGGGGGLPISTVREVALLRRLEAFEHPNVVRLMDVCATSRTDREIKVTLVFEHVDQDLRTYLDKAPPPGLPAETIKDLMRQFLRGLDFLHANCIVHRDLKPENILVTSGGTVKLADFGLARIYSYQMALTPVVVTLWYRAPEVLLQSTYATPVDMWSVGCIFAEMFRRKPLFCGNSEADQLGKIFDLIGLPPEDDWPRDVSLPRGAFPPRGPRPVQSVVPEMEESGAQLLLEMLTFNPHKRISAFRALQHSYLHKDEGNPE
T2 sequence (P30281 whole entry partner): as the sequence (P30281 whole entry partner) above

Compound | IC50 [1] [µM] | IC50 [2] [µM] | IC50 [3] [µM] | IC50 [4] [µM]
CNS(=O)(=O)c1ccc(Nc2ncc(C(F)(F)F)c(-n3cc(C[C@@H](C)O)cn3)n2)cc1 (single isomer, unassigned) [Example 5] | 0.01 to 0.1 | 0.01 to 0.1 | 0.01 to 0.1 | ≤ 0.01
CNS(=O)(=O)c1ccc(Nc2ncc(C(F)(F)F)c(-n3cc(C[C@H](C)O)cn3)n2)cc1 (single isomer, unassigned) [Example 6] | 0.01 to 0.1 | 0.01 to 0.1 | 0.01 to 0.1 | ≤ 0.01
CC(C)(O)Cc1cnn(-c2nc(N[C@@H]3CCOC[C@H]3O)ncc2C(F)(F)F)c1 (single isomer, unassigned) [Example 8] | ≥ 0.1 | 0.01 to 0.1 | 0.01 to 0.1 | ≥ 0.1
CC(C)(O)Cc1cnn(-c2nc(N[C@H]3CCOC[C@@H]3O)ncc2C(F)(F)F)c1 (single isomer, unassigned) [Example 9] | ≥ 0.1 | ≥ 0.1 | ≥ 0.1 | ≥ 0.1
CNS(=O)(=O)c1ccc(Nc2ncc(C(F)(F)F)c(-n3cc(C4CC4(F)F)cn3)n2)cc1 (single isomer, unassigned) [Example 52, 4-[[4-[4-(2,2-difluorocyclopropyl)pyrazol-1-yl]-5-(trifluoromethyl)pyrimidin-2-yl]amino]-N-methyl-benzenesulfonamide] | ≥ 0.1 | ≥ 0.1 | 0.01 to 0.1 | 0.01 to 0.1
CNS(=O)(=O)c1ccc(Nc2ncc(C(F)(F)F)c(-n3cc(C4CC4(F)F)cn3)n2)cc1 (single isomer, unassigned) [Example 53, 4-[[4-[4-(2,2-difluorocyclopropyl)pyrazol-1-yl]-5-(trifluoromethyl)pyrimidin-2-yl]amino]-N-methyl-benzenesulfonamide] | ≥ 0.1 | ≥ 0.1 | ≥ 0.1 | 0.01 to 0.1
CNS(=O)(=O)c1ccc(Nc2ncc(C(F)(F)F)c(-n3cc([C@@H]4CCC[C@H]4O)cn3)n2)cc1 (single isomer, unassigned) [Example 74] | ≥ 0.1 | 0.01 to 0.1 | ≥ 0.1 | 0.01 to 0.1
CNS(=O)(=O)c1ccc(Nc2ncc(C(F)(F)F)c(-n3cc([C@H]4CCC[C@@H]4O)cn3)n2)cc1 (single isomer, unassigned) [Example 75] | ≥ 0.1 | 0.01 to 0.1 | ≥ 0.1 | 0.01 to 0.1
CNS(=O)(=O)c1ccc(Nc2ncc(C(F)(F)F)c(-n3cc([C@@H]4CCC[C@@H]4O)cn3)n2)cc1 (single isomer, unassigned) [Example 76] | ≥ 0.1 | 0.01 to 0.1 | ≥ 0.1 | 0.01 to 0.1
CNS(=O)(=O)c1ccc(Nc2ncc(C(F)(F)F)c(-n3cc([C@H]4CCC[C@H]4O)cn3)n2)cc1 (single isomer, unassigned) [Example 77] | 0.01 to 0.1 | 0.01 to 0.1 | ≥ 0.1 | 0.01 to 0.1
CNS(=O)(=O)c1ccc(Nc2ncc(C(F)(F)F)c(-n3cc([C@@H]4CC[C@@H](O)C4)cn3)n2)cc1 (single isomer, unassigned) [Example 78] | ≥ 0.1 | 0.01 to 0.1 | 0.01 to 0.1 | ≤ 0.01
CNS(=O)(=O)c1ccc(Nc2ncc(C(F)(F)F)c(-n3cc([C@H]4CC[C@H](O)C4)cn3)n2)cc1 (single isomer, unassigned) [Example 79] | 0.01 to 0.1 | 0.01 to 0.1 | 0.01 to 0.1 | ≤ 0.01
CNS(=O)(=O)c1ccc(Nc2ncc(C(F)(F)F)c(-n3cc(C4CCOC4)cn3)n2)cc1 (single isomer, unassigned) [Example 89] | ≥ 0.1 | 0.01 to 0.1 | 0.01 to 0.1 | ≤ 0.01
CNS(=O)(=O)c1ccc(Nc2ncc(C(F)(F)F)c(-n3cc(C4CCOC4)cn3)n2)cc1 (single isomer, unassigned) [Example 90] | ≥ 0.1 | 0.01 to 0.1 | 0.01 to 0.1 | 0.01 to 0.1
CNS(=O)(=O)c1ccc(Nc2ncc(C(F)(F)F)c(-n3cc(C4CCCN4)cn3)n2)cc1 (single isomer, unassigned) [Example 92] | 0.01 to 0.1 | ≤ 0.01 | 0.01 to 0.1 | ≤ 0.01
CNS(=O)(=O)c1ccc(Nc2ncc(C(F)(F)F)c(-n3cc(C4CCNC4)cn3)n2)cc1 (single isomer, unassigned) [Example 93] | 0.01 to 0.1 | 0.01 to 0.1 | ≥ 0.1 | ≤ 0.01
CNS(=O)(=O)c1ccc(Nc2ncc(C(F)(F)F)c(-n3cc(C4CCN(C)C4)cn3)n2)cc1 (single isomer, unassigned) [Example 95] | 0.01 to 0.1 | 0.01 to 0.1 | ≥ 0.1 | ≤ 0.01
CNS(=O)(=O)c1ccc(Nc2ncc(C(F)(F)F)c(-n3cc(C4CCN(C)C4)cn3)n2)cc1 (single isomer, unassigned) [Example 96] | 0.01 to 0.1 | 0.01 to 0.1 | 0.01 to 0.1 | ≤ 0.01
CNS(=O)(=O)c1ccc(Nc2ncc(C(F)(F)F)c(-n3cc([C@H]4C[C@](C)(O)C4)cn3)n2)cc1 (single isomer, unassigned) [Example 104, 4-((4-(4-((1s,3s)-3-hydroxy-3-methylcyclobutyl)-1H-pyrazol-1-yl)-5-(trifluoromethyl)pyrimidin-2-yl)amino)-N-methylbenzenesulfonamide] | ≥ 0.1 | 0.01 to 0.1 | ≥ 0.1 | 0.01 to 0.1
CNS(=O)(=O)c1ccc(Nc2ncc(C(F)(F)F)c(-n3cc([C@H]4C[C@@](C)(O)C4)cn3)n2)cc1 (single isomer, unassigned) [Example 105, 4-((4-(4-((1r,3r)-3-hydroxy-3-methylcyclobutyl)-1H-pyrazol-1-yl)-5-(trifluoromethyl)pyrimidin-2-yl)amino)-N-methylbenzenesulfonamide] | 0.01 to 0.1 | 0.01 to 0.1 | 0.01 to 0.1 | 0.01 to 0.1
CC(O)Cc1cnn(-c2nc(NC3CCN(S(C)(=O)=O)CC3)ncc2C(F)(F)F)c1 (single isomer, unassigned) [Example 107] | 0.01 to 0.1 | 0.01 to 0.1 | 0.01 to 0.1 | ≤ 0.01
CC(O)Cc1cnn(-c2nc(NC3CCN(S(C)(=O)=O)CC3)ncc2C(F)(F)F)c1 (single isomer, unassigned) [Example 108] | ≥ 0.1 | 0.01 to 0.1 | 0.01 to 0.1 | 0.01 to 0.1
CC(C)(O)c1cnn(-c2nc(NC3CCN(S(C)(=O)=O)CC3)ncc2F)c1 [Example 1, 2-(1-(5-fluoro-2-((1-(methylsulfonyl)piperidin-4-yl)amino)pyrimidin-4-yl)-1H-pyrazol-4-yl)propan-2-ol] | ≥ 0.1 | 0.01 to 0.1 | 0.01 to 0.1 | 0.01 to 0.1
CNS(=O)(=O)c1ccc(Nc2ncc(C(F)(F)F)c(-n3cc(CC(C)(C)O)cn3)n2)cc1 [Example 2, 4-((4-(4-(2-hydroxy-2-methylpropyl)-1H-pyrazol-1-yl)-5-(trifluoromethyl)pyrimidin-2-yl)amino)-N-methylbenzenesulfonamide] | 0.01 to 0.1 | 0.01 to 0.1 | 0.01 to 0.1 | ≤ 0.01
CNS(=O)(=O)c1ccc(Nc2ncc(C(F)(F)F)c(-n3cc(CCC(C)(C)O)cn3)n2)cc1 [Example 3] | 0.01 to 0.1 | 0.01 to 0.1 | ≥ 0.1 | 0.01 to 0.1
CNS(=O)(=O)c1ccc(Nc2ncc(C(F)(F)F)c(-n3ccc(CC(C)(C)O)n3)n2)cc1 [Example 4] | ≥ 0.1 | ≥ 0.1 | ≥ 0.1 | 0.01 to 0.1
CC(C)(O)Cc1cnn(-c2nc(NC3CCN(S(C)(=O)=O)CC3)ncc2C(F)(F)F)c1 [Example 7] | 0.01 to 0.1 | 0.01 to 0.1 | 0.01 to 0.1 | ≤ 0.01
[2H]C([2H])([2H])NS(=O)(=O)c1ccc(Nc2ncc(C(F)(F)F)c(-n3cc(CCO)cn3)n2)cc1 [Example 10] | 0.01 to 0.1 | 0.01 to 0.1 | 0.01 to 0.1 | ≤ 0.01
CNS(=O)(=O)c1ccc(Nc2ncc(C(F)(F)F)c(-n3cc(C4CCCC4)cn3)n2)cc1 [Example 11, 4-((4-(4-cyclopentyl-1H-pyrazol-1-yl)-5-(trifluoromethyl)pyrimidin-2-yl)amino)-N-methylbenzenesulfonamide] | 0.01 to 0.1 | ≤ 0.01 | 0.01 to 0.1 | ≤ 0.01
